In the assay the target is T1, A419P TRPML3 (Homo sapiens, UniProt Q8TDD5, A419P).
T1 construct: expressed in transfected cells
T1 sequence (Q8TDD5 1-553 A419P): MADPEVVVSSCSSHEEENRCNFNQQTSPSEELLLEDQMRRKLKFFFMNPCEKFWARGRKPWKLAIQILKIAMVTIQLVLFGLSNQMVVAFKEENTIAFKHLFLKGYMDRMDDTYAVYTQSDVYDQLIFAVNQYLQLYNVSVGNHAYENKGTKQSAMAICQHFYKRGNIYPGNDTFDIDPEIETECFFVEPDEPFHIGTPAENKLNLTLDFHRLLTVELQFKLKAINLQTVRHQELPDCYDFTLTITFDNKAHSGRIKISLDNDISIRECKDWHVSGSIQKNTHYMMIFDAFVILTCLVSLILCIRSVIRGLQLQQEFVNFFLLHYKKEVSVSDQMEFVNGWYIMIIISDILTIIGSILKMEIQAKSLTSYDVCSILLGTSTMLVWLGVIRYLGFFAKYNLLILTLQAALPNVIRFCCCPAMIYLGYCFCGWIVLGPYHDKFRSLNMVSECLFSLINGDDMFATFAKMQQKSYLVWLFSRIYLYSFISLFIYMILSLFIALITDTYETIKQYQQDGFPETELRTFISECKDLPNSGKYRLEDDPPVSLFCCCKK
Description: IonWorks PPC patch clamp, inducible CHO-K1 cell line expressing A419P TRPML3. Format: cell-based. The note with it: 4 mM GdCl3 solution. From the text:
Different versions of human TRPML3 can be assayed, included but not limited to a wild-type version and a gain of function mutant version encoding an A419P substitution. TRPML3 can be expressed in CHO-K1 cells by one of three methods: (i) transient transfection (ii) BacMam transduction or (iii) a stable transfection and TRPML3 function measured using the perforated patch clamp technique on an IonWorks Quattro instrument (MDS Analytical Technologies). Cells are dissociated with Detachin cell detachment solution (Genlantis), centrifuged, and resuspended in external recording buffer (150 mM NaCl, 2 mM KCl, 1.5 mM CaCl2, 1 mM MgCl2, 10 mM HEPES pH 7.4 with NaOH). […]
The following description illustrates the IonWorks screening assay to identify compounds that modulate (activate or block) TRPML3 function. […] In each scan currents are measured as the voltage is modified (see example voltage command trace in FIG. 29).
Compounds will be applied at concentrations between ˜1 uM and 100 uM. […] Compounds that enhance TRPML3 by affecting the voltage dependent rectification will be preferentially detected at −40 mV where the rectification is strong while compounds that block TRPML3 will be preferentially detected at −120 mV where the TRPML3 currents are larger. To quantitate the effect of a compound on TRPML3 function, we use the following formula: [(A−Ao)/(B−Bo)]×100. […]
A general note: The patch-clamp technique gives a direct electrical read-out from membranes.

Take `[Cl][Gd]([Cl])[Cl]` [gadolinium, gadolinium chloride]: the “effect on TRPML3 current (IonWorks scan)” value is recorded as “blocks TRPML3 current”.
